Results reported in patent US20020137154A1, “Methods for improving cell growth and alcohol production during fermentation” (priority 2000, published 2002).

System: Klebsiella oxytoca P2
Assay: Batch fermentation of Klebsiella oxytoca P2 in 1% CSL medium and xylose with acetaldehyde: ethanol production and cell growth
Assay type: cell-based
Conditions: for Ethanol Production Maximum / Ethanol Production Maximum % Control / Ethanol yield / Initial Growth (OD @ 24 h) % Control / Initial Growth (OD @ 24 h) OD / Maximum Cell Density % Control / Maximum Cell Density OD / Maximum Cell Density Time / Time to completion / Volumetric Productivity % Control (based on Avg) / Volumetric Productivity % Control (based on Max) / Volumetric Productivity Average / Volumetric Productivity Maximum: K. oxytoca P2, 1% CSL+xylose
Method: Two types of media were tested: 1% CSL and Luria broth (LB). Each contained 97 g of either xylose or glucose per liter. Luria Broth consists of, per liter: 10 g Difco® Tryptone, 5 g Difco® Yeast Extract and 5 g NaCl. The 1% CSL medium consists of Corn Steep Liquor (1% w/v) plus mineral salts (mineral salts per liter: 1 g of KH2PO4. 0.5 g of K2HPO4, 3.1 g of (NH4)2SO4, 0.4 g of MgCl2·6H2), and 20 mg FeCl3·6H2O).
Luria Broth was prepared by autoclaving a 2× nutrient stock containing, per liter: 20 g Difco® Tryptone, 10 g Difo® Yeast Extract, and 10 g NaCl. Sugars (xylose or glucose) were autoclaved separately. A 1% CSL medium was prepared as follows: Commercial Corn Steep Liquor (CSL; 50% dry weight/50% water) was diluted with tap water to make a 20X stock containing 100 g dry weight of Corn Steep Liquor/L and was adjusted to pH 7.2 with NaOH (50%). After sterilization by autoclaving, the 20X CSL stock was clarified by centrifugation at 5000×g for 10 minutes. Magnesium was added as a 100× stock solution (40 g/L MgCl2·6H2O). Iron was added as a 1000× stock solution made by dissolving 20 g FeCl3·6H2O in 175 mL of HCl and adjusting to 1 L with sterile water. Nitrogen, sulfur and phosphorus were added using a 20× stock solution containing the following (per liter): 20 g of KH2PO4, 10 g of K2HPO4 and 62 g of (NH4)2SO4. Stock solutions containing minerals were sterilized separately by autoclaving. Final media was prepared by adding 750 mL of water to 1 L bottle containing 100 g of xylose or glucose. This solution was autoclaved, and stock solutions were added to provide a 1× concentration, and the final volume adjusted to 1 L. This broth was further diluted by the addition of supplements (acetaldehyde stock or distilled water) during fermentation with a resulting sugar content of 97 g/L.
Inocula were grown in same media used for fermentation and were prepared as follows. Three colonies from a fresh plate were used to inoculate seed cultures: 250-mL flask containing 100 mL medium. These cultures were grown with agitation (120 rpm) for 12-16 hours at 35° C. to a final OD550nm of approximately 2.0-2.5. Cells were harvested by centrifugation at 5000×g for 5 minutes, and resuspended in fresh media to an OD550nm of 0.1. The resulting suspension was distributed into 500-mL beakers containing 345 ml each of fermentation medium. Acetaldehyde was added as indicated. Batch fermentations (35° C., 100 rpm) were maintained at pH 6.5 by the automatic addition of 2N KOH. Cell mass, ethanol, and base addition (2N KOH) were recorded during 96 hours of incubation.
Cell mass was estimated by measuring OD550nm using Baush & Lomb® Spectronic 70 spectrophotometer. […] Ethanol was measured by gas chromatography using a Varian® 3400 CX gas chromatograph with 1-propanol as an internal standard.
This example describes the effect of the addition of acetaldehyde to 1% CSL and xylose medium, which has been inoculated with ethanologenic, cells, i.e., Klebsiella oxytoca P2.
Maximum ethanol production is shown in grams/liter (g/L). The ethanol yield is shown in grams of ethanol/grams of added sugar. Maximum volumetric productivity is shown in grams of ethanol/(liter)(hour). The average productivity is calculated form the start of fermentation to the completion of fermentation in grams ethanol/(liter)(hour).
Acetaldehyde was added to the fermentation medium at five different concentrations and time points. Where only one acetaldehyde value is provided, this amount of acetaldehyde was added at the start of fermentation only (i.e., 0.25 g/L acetaldehyde or 0.5 g/L). Where two or three additions are indicated, the first volume was added at the start of fermentation and additional doses of the nutrient compound were added after 8 hours of fermentation or at 8-hour intervals.

[1] = 2 × 0.25 g/L (start, after 8 hours)
[2] = 3 × 0.25 g/L (start, then 8-hour intervals)
[3] = K. oxytoca P2, CSL and xylose, 0.5 g/L at the start

**Q.** `CC=O` [Acetaldehyde, acetaldehyde] was tested. Which “Ethanol Production Maximum” value (0.25 g/L at start) did it give?
**A.** 25.43 g/L

**Q.** And the “Ethanol Production Maximum % Control” value (0.25 g/L at start)?
**A.** 107.35%

**Q.** What about the Ethanol yield (0.25 g/L at start) of the same compound?
**A.** 0.262 grams of ethanol/grams of added sugar

**Q.** And the “Initial Growth (OD @ 24 h) % Control” value (0.25 g/L at start)?
**A.** 93.90%

**Q.** What about the “Initial Growth (OD @ 24 h) OD” value (0.25 g/L at start) of the same compound?
**A.** 3.54 OD

**Q.** And the “Maximum Cell Density % Control” value (0.25 g/L at start)?
**A.** 111.96%

**Q.** And the “Maximum Cell Density OD” value (0.25 g/L at start)?
**A.** 5.68 OD

**Q.** And the “Maximum Cell Density Time” value (0.25 g/L at start)?
**A.** 72.00 h

**Q.** What about the Time to completion (0.25 g/L at start) of the same compound?
**A.** >96 h

**Q.** What about the “Volumetric Productivity % Control (based on Avg)” value (0.25 g/L at start) of the same compound?
**A.** 107.35%

**Q.** And the “Volumetric Productivity % Control (based on Max)” value (0.25 g/L at start)?
**A.** 135.46%

**Q.** What about the “Volumetric Productivity Average” value (0.25 g/L at start) of the same compound?
**A.** 0.265 grams ethanol/(liter)(hour)

**Q.** And the “Volumetric Productivity Maximum” value (0.25 g/L at start)?
**A.** 0.47 grams of ethanol/(liter)(hour)

**Q.** And the “Ethanol Production Maximum” value (0.5 g/L at start)?
**A.** 26.53 g/L

**Q.** What about the “Ethanol Production Maximum % Control” value (0.5 g/L at start) of the same compound?
**A.** 111.98%

**Q.** And the Ethanol yield (0.5 g/L at start)?
**A.** 0.273 grams of ethanol/grams of added sugar

**Q.** And the “Initial Growth (OD @ 24 h) % Control” value (0.5 g/L at start)?
**A.** 69.39%

**Q.** And the “Initial Growth (OD @ 24 h) OD” value (0.5 g/L at start)?
**A.** 2.61 OD

**Q.** And the “Maximum Cell Density % Control” value (0.5 g/L at start)?
**A.** 116.26%

**Q.** What about the “Maximum Cell Density OD” value (0.5 g/L at start) of the same compound?
**A.** 5.89 OD

**Q.** And the “Maximum Cell Density Time” value (0.5 g/L at start)?
**A.** 96.00 h

**Q.** And the Time to completion (0.5 g/L at start)?
**A.** >96 h

**Q.** What about the “Volumetric Productivity % Control (based on Avg)” value (0.5 g/L at start) of the same compound?
**A.** 111.98%

**Q.** What about the “Volumetric Productivity % Control (based on Max)” value (0.5 g/L at start) of the same compound?
**A.** 147.11%

**Q.** What about the “Volumetric Productivity Average” value (0.5 g/L at start) of the same compound?
**A.** 0.276 grams ethanol/(liter)(hour)

**Q.** What about the “Volumetric Productivity Maximum” value (0.5 g/L at start) of the same compound?
**A.** 0.51 grams of ethanol/(liter)(hour)

**Q.** And the “Ethanol Production Maximum” value [1]?
**A.** 25.56 g/L

**Q.** And the “Ethanol Production Maximum % Control” value [1]?
**A.** 107.88%

**Q.** And the Ethanol yield [1]?
**A.** 0.263 grams of ethanol/grams of added sugar

**Q.** What about the “Initial Growth (OD @ 24 h) % Control” value [1] of the same compound?
**A.** 88.59%

**Q.** And the “Initial Growth (OD @ 24 h) OD” value [1]?
**A.** 3.34 OD

**Q.** And the “Maximum Cell Density % Control” value [1]?
**A.** 104.50%

**Q.** And the “Maximum Cell Density OD” value [1]?
**A.** 5.30 OD

**Q.** What about the “Maximum Cell Density Time” value [1] of the same compound?
**A.** 96.00 h

**Q.** What about the Time to completion [1] of the same compound?
**A.** >96 h

**Q.** What about the “Volumetric Productivity % Control (based on Avg)” value [1] of the same compound?
**A.** 107.88%

**Q.** What about the “Volumetric Productivity % Control (based on Max)” value [1] of the same compound?
**A.** 126.68%

**Q.** And the “Volumetric Productivity Average” value [1]?
**A.** 0.266 grams ethanol/(liter)(hour)

**Q.** What about the “Volumetric Productivity Maximum” value [1] of the same compound?
**A.** 0.44 grams of ethanol/(liter)(hour)

**Q.** And the “Ethanol Production Maximum” value [2]?
**A.** 26.14 g/L

**Q.** And the “Ethanol Production Maximum % Control” value [2]?
**A.** 110.32%

**Q.** What about the Ethanol yield [2] of the same compound?
**A.** 0.269 grams of ethanol/grams of added sugar

**Q.** And the “Initial Growth (OD @ 24 h) % Control” value [2]?
**A.** 95.66%

**Q.** And the “Initial Growth (OD @ 24 h) OD” value [2]?
**A.** 3.60 OD

**Q.** What about the “Maximum Cell Density % Control” value [2] of the same compound?
**A.** 106.51%

**Q.** What about the “Maximum Cell Density OD” value [2] of the same compound?
**A.** 5.40 OD

**Q.** What about the “Maximum Cell Density Time” value [2] of the same compound?
**A.** 72.00 h

**Q.** What about the Time to completion [2] of the same compound?
**A.** >96 h

**Q.** What about the “Volumetric Productivity % Control (based on Avg)” value [2] of the same compound?
**A.** 110.32%

**Q.** And the “Volumetric Productivity % Control (based on Max)” value [2]?
**A.** 135.55%

**Q.** And the “Volumetric Productivity Average” value [2]?
**A.** 0.272 grams ethanol/(liter)(hour)

**Q.** And the “Volumetric Productivity Maximum” value [2]?
**A.** 0.47 grams of ethanol/(liter)(hour)

**Q.** What about the “ethanol production as compared to the control” value [3] of the same compound?
**A.** highest amount of ethanol production

**Q.** What about the “initial growth and maximum cell density as compared to the control” value [3] of the same compound?
**A.** increased initial growth and maximum cell density
